Laboratory results as given in patent US11001569B2, “6-membered heteroaromatic substituted cyanoindoline derivatives as NIK inhibitors” (Janssen Pharmaceutica NV, priority 2016, dated 2021).
Read-outs that look alike come from different tables or passages of the source.

What was measured:
[1] = tested on: KMS12-BM (NIK WT) multiple myeloma cells; experiment: Antiproliferative activity on KMS12-BM multiple myeloma cells (CellTiter-Glo); type: cell-based, human; conditions: Homo sapiens, KMS-12-BM, 96 h, 96 hr treatment, averaged values, read-out: KMS-12 Proliferation inhibition (IC50 (nM))
Procedure, shortened: (§1)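 Cells plated at 15000 (JJN3) or 20000 (KMS12BM) per well and treated 96 h at 37° C, 5% CO2, final DMSO 0.3%, 9-point 1:3 dilutions. Viability by CellTiter-Glo luminescence; time-zero blank subtracted, growth expressed as percent of untreated control.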

[2] = tested on: JJN-3 (NIK translocated) multiple myeloma cells; experiment: Antiproliferative activity on JJN-3 multiple myeloma cells (CellTiter-Glo); type: cell-based, human; conditions: Homo sapiens, JJN-3, 96 h, JJN-3 (NIK translocated) cells, 96 hr treatment, averaged values, read-out: JJN-3 Proliferation inhibition (IC50 (nM))
Procedure, shortened: as §1

[3] = tested on: P-IKKα levels in L363 (NIK translocated multiple myeloma) cells; experiment: Effect of compounds on P-IKKα levels in L363 cells (Mesoscale sandwich immuno-assay); type: cell-based, human; conditions: 2 hr treatment, averaged values, read-out: Inhibition of pIKKα_L-363 (IC50 (nM))
Procedure: Effect of Compounds on P-IKKα Levels in L363 (NIK Translocated Multiple Myeloma) Cells
All compounds tested were dissolved in DMSO and further dilutions were made in culture medium. Final DMSO concentration was 1% (v/v) in cell assays. The human L363 cells (ATCC) were cultured in RPMI 1640 medium supplemented with GlutaMax and 10% fetal calf serum (PAA). Cells were routinely maintained at densities of 0.2×10^6 cells per ml-1×10^6 cells per ml at 37° C. in a humidified 5% CO2 atmosphere. Cells were passaged twice a week splitting back to obtain the low density. Cells were seeded in 96 well plates (Nunc 167008) at 2×10^6 per ml media in a volume of 75 μl per well plus 25 μl 1 μg/ml recombinant human B-cell activating factor (BAFF/BLyS/TNFSF13B). Seeded cells were incubated at 37° C. in a humidified 5% CO2 atmosphere for 24 hr. Drugs and/or solvents were added (20 μl) to a final volume of 120 μl. Following 2 hr treatment plates were removed from the incubator and cell lysis was achieved by the addition of 30 μl 5× lysis buffer followed by shaking on a plate shaker at 4° C. for 10 min. At the end of this incubation lysed cells were centrifuged at 800×g for 20 min at 4° C. and the lysate was assessed for P-IKK levels by sandwich immuno-assay carried out in anti-rabbit antibody coated Mesoscale plates. Within an experiment, the results for each treatment were the mean of 2 replicate wells. For initial screening purposes, compounds were tested using an 8 point dilution curve (serial 1:3 dilutions). […] The blank incubation value was subtracted from all control and sample values. To determine the IC50 a sigmoidal curve was fitted to the plot of % inhibition of control P-IKKα levels versus Log10 compound concentration.

[4] = molecular target: recombinant human NF-kappaB-inducing Kinase (NIK/MAP3K14) (Homo sapiens, UniProt Q99558); experiment: Inhibition of auto-phosphorylation of recombinant human NIK/MAP3K14 activity (AlphaScreen); type: biochemical; conditions: 25 microM ATP, averaged over all measurements on all batches
Chain of recombinant human NF-kappaB-inducing Kinase (NIK/MAP3K14) (Q99558 whole entry): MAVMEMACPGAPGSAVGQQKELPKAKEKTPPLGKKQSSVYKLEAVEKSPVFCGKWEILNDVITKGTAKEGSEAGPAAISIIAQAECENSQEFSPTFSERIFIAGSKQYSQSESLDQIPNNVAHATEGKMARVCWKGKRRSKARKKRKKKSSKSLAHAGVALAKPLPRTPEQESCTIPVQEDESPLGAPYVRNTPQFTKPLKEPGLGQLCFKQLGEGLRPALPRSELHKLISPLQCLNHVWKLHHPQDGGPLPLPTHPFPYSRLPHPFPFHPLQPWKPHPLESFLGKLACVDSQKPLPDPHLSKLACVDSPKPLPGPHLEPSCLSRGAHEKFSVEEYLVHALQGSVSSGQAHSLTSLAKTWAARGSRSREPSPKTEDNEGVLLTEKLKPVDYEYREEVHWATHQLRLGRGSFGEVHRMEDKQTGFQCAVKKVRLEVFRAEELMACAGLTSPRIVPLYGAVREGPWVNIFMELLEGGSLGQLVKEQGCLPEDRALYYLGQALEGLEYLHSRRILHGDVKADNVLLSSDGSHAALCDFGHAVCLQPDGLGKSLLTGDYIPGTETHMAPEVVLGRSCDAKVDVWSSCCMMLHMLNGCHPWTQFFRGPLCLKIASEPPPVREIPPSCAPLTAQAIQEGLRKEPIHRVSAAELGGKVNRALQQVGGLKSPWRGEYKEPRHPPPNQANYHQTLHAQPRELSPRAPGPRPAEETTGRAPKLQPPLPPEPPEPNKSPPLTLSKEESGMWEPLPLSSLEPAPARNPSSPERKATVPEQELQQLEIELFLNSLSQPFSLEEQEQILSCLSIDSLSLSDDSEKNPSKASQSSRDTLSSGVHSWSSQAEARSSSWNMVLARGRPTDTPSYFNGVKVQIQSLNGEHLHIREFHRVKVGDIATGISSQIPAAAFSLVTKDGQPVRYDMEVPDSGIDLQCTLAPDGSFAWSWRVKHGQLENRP

IC50 [1] | melting point | IC50 [2] | IC50 ([3]; Homo sapiens, L-363, 2 h) | IC50 [4] | IC50 [3] | SMILES
> 10000 nM | 287 °C | 41 nM | 1.5 nM | 2.3 nM |  | Cc1cc(Nc2nccc(-c3cc(C#N)c4c(c3)[C@@](C)(CO)CN4)n2)c(=O)n(CCN2CCCOCC2)c1 [Compound 20i]
 | 276 °C |  | 14.5 nM | 4.6 nM |  | Cc1cc(Nc2ncnc(-c3cc(C#N)c4c(c3)[C@@](C)(CO)CN4)n2)c(=O)n(C)c1 [Compound 30i]
> 10000 nM | 313 °C | 120 nM | 8.5 nM | 1 nM |  | Cc1cc(Nc2nccc(-c3cc(C#N)c4c(c3)[C@@](C)(CO)CN4)n2)c(=O)n(C)c1 [Compound 9i]
> 10000 nM |  | 148 nM | 13.8 nM | 5.8 nM |  | Cc1cc(Nc2nccc(-c3cc(C#N)c4c(c3)C(C)(C)CN4)n2)c(=O)n(CCN2CC(F)C2)c1 [Compound 27i]
5010 nM |  | 282 nM | 15.8 nM | 4.5 nM |  | Cc1cc(Nc2nccc(-c3cc(C#N)c4c(c3)[C@@](C)(CO)CN4)n2)c(=O)n(CCC2CC2)c1 [Compound 5i]

Second part, the molecule before the results:

SMILES | IC50 [1] | melting point | IC50 [2] | IC50 ([3]; Homo sapiens, L-363, 2 h) | IC50 [4] | IC50 [3]
Cc1cc(Nc2nccc(-c3cc(C#N)c4c(c3)[C@@](C)(CO)CN4)n2)c(C)nc1OCC1(C)COC1 [Compound 159] | > 10000 nM | 179 °C | 89 nM | 5.9 nM | 5.6 nM | 
Cc1cc(Nc2nccc(-c3cc(C#N)c4c(c3)[C@@](C)(CO)CN4)n2)c(=O)n(Cc2nccn2C)c1 [Compound 4i] | > 10000 nM | 235 °C | 316 nM | 8.9 nM | 1.3 nM | 
Cc1cc(Nc2nccc(-c3cc(C#N)c4c(c3)[C@@](C)(CO)CN4)n2)c(C)cn1 [Compound 167] | > 10000 nM | 263 °C | 30 nM | 2.8 nM | 1.7 nM | 
Cc1cnc(OCC2CN(C)CCO2)c(Nc2nccc(-c3cc(C#N)c4c(c3)[C@@](C)(CO)CN4)n2)c1 (single isomer, unassigned) [Compound 152] |  | 140 °C |  |  | 14.1 nM | 85.1 nM
Cc1cnc(CO)cc1Nc1nccc(-c2cc(C#N)c3c(c2)[C@@](C)(CO)CN3)n1 [Compound 156] | ~6460 nM | 245 °C | 105 nM | 6.3 nM | 2.3 nM | 
COCCOc1ncc(C)cc1Nc1nccc(-c2cc(C#N)c3c(c2)[C@@](C)(CO)CN3)n1 [Compound 69] | > 10000 nM | 186 °C | 263 nM | ~129 nM | 3.2 nM | 
CN(C)C(=O)CCc1ccc(Nc2nccc(-c3cc(C#N)c4c(c3)[C@@](C)(CO)CN4)n2)c(CCC2CC2)n1 [Compound 89] | > 10000 nM | 301 °C | 912 nM | 14.8 nM | 3.6 nM | 
CC1(C)CNc2c(C#N)cc(-c3ccnc(Nc4cc(Cl)cnc4C(=O)N4CCC(O)C4)n3)cc21 (stereo not shown) [Compound 180] |  | 143 to 145 °C |  | 617 nM | 339 nM | 
COCCOc1nc(C2CCOCC2)ncc1Nc1nccc(-c2cc(C#N)c3c(c2)[C@@](C)(CO)CN3)n1 [Compound 141] | 4790 nM |  | 741 nM | 355 nM | 18.6 nM | 
COc1ncccc1Nc1nccc(-c2cc(C#N)c3c(c2)C(C)(C)CN3)n1 [Compound 97] | > 10000 nM |  | 1820 nM | 42.7 nM | 9.8 nM | 
Cc1cnc(/C=C/C(=O)N(C)C)c(Nc2nccc(-c3cc(C#N)c4c(c3)[C@@](C)(CO)CN4)n2)c1 [Compound 84] | > 10000 nM |  | 4680 nM | 11.8 nM | 5.6 nM | 
CNC(=O)c1cc(Nc2nccc(-c3cc(C#N)c4c(c3)[C@@](C)(CO)CN4)n2)c(C)cn1 [Compound 165] | > 10000 nM |  | 117 nM | 6.2 nM | 1.3 nM | 
